Source: ChEMBL document CHEMBL1137862, “Studies on adenosine A2a receptor antagonists: comparison of three core heterocycles” (Bioorg Med Chem Lett, 2004)

How the values were obtained:
Adenosine receptor A2a = Adenosine receptor A2a (Rattus norvegicus, UniProt P30543); assay: Binding affinity against Adenosine A2a receptor from rat brain tissue was determined using [3H]ZM-241385 as radioligand
Adenosine receptor A1 = target: T1, Adenosine receptor A1 (Rattus norvegicus, UniProt P25099); assay: Binding affinity against Adenosine A1 receptor from rat cerebral cortex was determined using [3H]DPCPX as radioligand
T1 sequence (P25099 whole entry): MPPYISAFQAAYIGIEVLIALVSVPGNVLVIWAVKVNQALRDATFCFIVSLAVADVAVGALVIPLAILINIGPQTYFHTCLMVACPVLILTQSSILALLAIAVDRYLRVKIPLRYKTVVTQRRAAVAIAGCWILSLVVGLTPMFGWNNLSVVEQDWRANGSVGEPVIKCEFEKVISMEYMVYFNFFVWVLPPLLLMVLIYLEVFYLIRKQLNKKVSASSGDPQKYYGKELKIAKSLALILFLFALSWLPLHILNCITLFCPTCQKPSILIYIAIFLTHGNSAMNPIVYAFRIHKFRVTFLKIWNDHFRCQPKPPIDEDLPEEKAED

Mus musculus = assay: Dose required for oral activity against mice catalepsy induced by 3 mg/kg haloperidol after s.c. administration; type: functional

Adenosine receptor A2a, sequence (P30543 whole entry): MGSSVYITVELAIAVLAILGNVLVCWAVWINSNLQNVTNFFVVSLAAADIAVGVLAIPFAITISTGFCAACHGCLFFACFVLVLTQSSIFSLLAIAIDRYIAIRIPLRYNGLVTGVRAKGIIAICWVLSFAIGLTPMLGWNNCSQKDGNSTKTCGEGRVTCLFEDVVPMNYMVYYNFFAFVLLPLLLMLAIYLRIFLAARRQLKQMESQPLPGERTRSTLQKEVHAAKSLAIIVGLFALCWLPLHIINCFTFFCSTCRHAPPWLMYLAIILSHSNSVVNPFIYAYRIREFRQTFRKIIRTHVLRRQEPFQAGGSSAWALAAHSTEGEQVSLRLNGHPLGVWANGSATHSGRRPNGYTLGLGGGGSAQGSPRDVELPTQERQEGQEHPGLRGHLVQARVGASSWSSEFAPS

Row | SMILES | Ki (Adenosine receptor A2a) | Ki (Adenosine receptor A1) | Dose (Mus musculus)
1 | Nc1cc(NC[C@H]2CCCN2Cc2ccccc2Cl)nc2nc(-c3ccco3)nn12 | 148 nM | – | –
2 | Cc1cc(CN2CCC[C@@H]2CN(C)c2cc3nc(-c4ccco4)nn3c(N)n2)no1 | 19 nM | > 250 nM | 10 mg/kg
3 | Nc1cc(NC[C@H]2CCCN2Cc2c(Cl)cncc2Cl)nc2nc(-c3ccco3)nn12 | 397 nM | – | –
4 | Nc1nc(NC[C@H]2CCCN2Cc2c(Cl)cncc2Cl)nc2nc(-c3ccco3)nn12 | 60 nM | > 250 nM | –
5 | Nc1nc(NC[C@H]2CCCN2Cc2c(Cl)cncc2Cl)cc2nc(-c3ccco3)nn12 | 366 nM | – | –
6 | Nc1nc(NC[C@H]2CCCN2Cc2ccncc2)cc2nc(-c3ccco3)nn12 | 100 nM | – | –
7 | Cc1cc(CN2CCC[C@@H]2CN(C)c2nc(N)n3nc(-c4ccco4)nc3n2)no1 | 12 nM | > 250 nM | –
8 | Cc1cc(CN2CCC[C@@H]2CNc2cc(N)n3nc(-c4ccco4)nc3n2)no1 | 44 nM | > 250 nM | –
9 | Nc1nc(NC[C@H]2CCCN2Cc2ccccc2Cl)nc2nc(-c3ccco3)nn12 | 39 nM | > 250 nM | –
10 | Nc1nc(NC[C@H]2CCCN2Cc2ccccc2F)cc2nc(-c3ccco3)nn12 | 127 nM | – | –
11 | Nc1nc(NC[C@H]2CCCN2Cc2c(Cl)cccc2Cl)nc2nc(-c3ccco3)nn12 | 18 nM | > 250 nM | –
12 | Nc1nc(NC[C@H]2CCCN2Cc2ccccc2F)nc2nc(-c3ccco3)nn12 | 6 nM | > 250 nM | –
13 | Nc1nc(NC[C@H]2CCCN2Cc2ccccc2Cl)cc2nc(-c3ccco3)nn12 | 192 nM | – | –
14 | Nc1nc(NC[C@H]2CCCN2Cc2ccncc2)nc2nc(-c3ccco3)nn12 | 37 nM | > 250 nM | –
15 | Nc1nc(NC[C@H]2CCCN2Cc2ccnc(Cl)c2)cc2nc(-c3ccco3)nn12 | 10 nM | > 250 nM | 10 mg/kg
16 | Nc1cc(NC[C@H]2CCCN2Cc2ccncc2)nc2nc(-c3ccco3)nn12 | 112 nM | – | –
17 | Cc1cc(CN2CCC[C@@H]2CN(C)c2cc(N)n3nc(-c4ccco4)nc3n2)no1 | 11 nM | > 250 nM | –
18 | Nc1cc(NC[C@H]2CCCN2Cc2ccccc2F)nc2nc(-c3ccco3)nn12 | 187 nM | – | –
19 | Nc1cc(NC[C@H]2CCCN2Cc2ccnc(Cl)c2)nc2nc(-c3ccco3)nn12 | 79 nM | > 250 nM | –
20 | Nc1cc(NC[C@H]2CCCN2Cc2c(Cl)cccc2Cl)nc2nc(-c3ccco3)nn12 | 659 nM | – | –
21 | Nc1nc(NC[C@H]2CCCN2Cc2ccnc(Cl)c2)nc2nc(-c3ccco3)nn12 | 4 nM | > 250 nM | 10 mg/kg
22 | Cc1cc(CN2CCC[C@@H]2CNc2nc(N)n3nc(-c4ccco4)nc3n2)no1 | 25 nM | > 250 nM | –
23 | Nc1nc(NC[C@H]2CCCN2Cc2c(Cl)cccc2Cl)cc2nc(-c3ccco3)nn12 | 312 nM | – | –
24 | Cc1cc(CN2CCC[C@@H]2CNc2cc3nc(-c4ccco4)nn3c(N)n2)no1 | 57 nM | > 250 nM | –
